# Experimental data from ChEMBL document CHEMBL3885881, “DrugMatrix”.
# Species on record: Rattus norvegicus
# Test: DrugMatrix - Regimen: Daily Repeat
# Type: toxicity, organism-based, Sprague-Dawley
# Set-up: regimen Daily Repeat, gender Male, age 6-8 weeks
# Conditions: in vivo, po, route oral GAVAGE, vehicle .5 % CMC; for ABSOLUTE BASOPHIL / ABSOLUTE EOSINOPHIL / ABSOLUTE LYMPHOCYTE / ABSOLUTE MONOCYTE / ABSOLUTE SEGMENTED NEUTROPHIL / BASOPHIL / EOSINOPHIL / ERYTHROCYTE COUNT / HEMATOCRIT / HEMOGLOBIN / LEUKOCYTE COUNT / LYMPHOCYTE / MEAN CORPUSCULAR HEMOGLOBIN / MEAN CORPUSCULAR HEMOGLOBIN CONCENTRATION / MEAN CORPUSCULAR VOLUME / MONOCYTE / NEUTROPHIL / NUCLEATED RED BLOOD CELLS / PLATELET COUNT: tissue Blood; for ALANINE AMINOTRANSFERASE / ALBUMIN / ALKALINE PHOSPHATASE / ASPARTATE AMINOTRANSFERASE / BLOOD UREA NITROGEN / CARBON DIOXIDE / CHLORIDE / CHOLESTEROL / CREATINE PHOSPHOKINASE / CREATININE / GLUCOSE / LACTATE DEHYDROGENASE / LIPASE / PHOSPHORUS / POTASSIUM / SODIUM / TOTAL BILIRUBIN / TOTAL PROTEIN / URIC ACID: tissue Plasma
# [1] = 150 mg/kg, 120 h, dose level Low, time 5 day
# [2] = 1500 mg/kg, 72 h, dose level High, time 3 day
# [3] = 1500 mg/kg, 120 h, dose level High, time 5 day
smiles,measurement,setting,value
C[C@@H](O)[C@H]1C(=O)N2C(C(=O)O)=C(S[C@@H]3CN[C@H](C(=O)N(C)C)C3)[C@H](C)[C@H]12 [MEROPENEM],ABSOLUTE BASOPHIL,[1],0 CELLS/uL
same,ABSOLUTE EOSINOPHIL,[1],351 CELLS/uL
same,ABSOLUTE LYMPHOCYTE,[1],13228.33 CELLS/uL
same,ABSOLUTE MONOCYTE,[1],0 CELLS/uL
same,ABSOLUTE SEGMENTED NEUTROPHIL,[1],1520.67 CELLS/uL
same,BASOPHIL,[1],0%
same,EOSINOPHIL,[1],2.33%
same,ERYTHROCYTE COUNT,[1],5.62 x10E6/uL
same,HEMATOCRIT,[1],34.4%
same,HEMOGLOBIN,[1],13.1 G/DL
same,LEUKOCYTE COUNT,[1],15.1 x10E3/uL
same,LYMPHOCYTE,[1],88%
same,MEAN CORPUSCULAR HEMOGLOBIN,[1],23.37 pg
same,MEAN CORPUSCULAR HEMOGLOBIN CONCENTRATION,[1],38.1 G/DL
same,MEAN CORPUSCULAR VOLUME,[1],61.33 fL
same,MONOCYTE,[1],0%
same,NEUTROPHIL,[1],9.67%
same,NUCLEATED RED BLOOD CELLS,[1],0 /100WBC
same,PLATELET COUNT,[1],1149.33 x10E3/uL
same,ALANINE AMINOTRANSFERASE,[1],61.33 u/L
same,ALBUMIN,[1],4.13 G/DL
same,ALKALINE PHOSPHATASE,[1],367 u/L
same,ASPARTATE AMINOTRANSFERASE,[1],86 u/L
same,BLOOD UREA NITROGEN,[1],19 mg/dL
same,CARBON DIOXIDE,[1],25.33 mmol/L
same,CHLORIDE,[1],101.67 MEQ/L
same,CHOLESTEROL,[1],70 mg/dL
same,CREATINE PHOSPHOKINASE,[1],254 u/L
same,CREATININE,[1],0.23 mg/dL
same,GLUCOSE,[1],161 mg/dL
same,LACTATE DEHYDROGENASE,[1],187.67 u/L
same,LIPASE,[1],9 u/L
same,PHOSPHORUS,[1],12.3 mg/dL
same,POTASSIUM,[1],6.26 MEQ/L
same,SODIUM,[1],142.3 MEQ/L
same,TOTAL BILIRUBIN,[1],0.17 mg/dL
same,TOTAL PROTEIN,[1],5.93 G/DL
same,URIC ACID,[1],1.6 mg/dL
same,ABSOLUTE BASOPHIL,[2],0 CELLS/uL
same,ABSOLUTE EOSINOPHIL,[2],214 CELLS/uL
same,ABSOLUTE LYMPHOCYTE,[2],12444.67 CELLS/uL
same,ABSOLUTE MONOCYTE,[2],0 CELLS/uL
same,ABSOLUTE SEGMENTED NEUTROPHIL,[2],841.33 CELLS/uL
same,BASOPHIL,[2],0%
same,EOSINOPHIL,[2],1.33%
same,ERYTHROCYTE COUNT,[2],5.72 x10E6/uL
same,HEMATOCRIT,[2],35.5%
same,HEMOGLOBIN,[2],13.53 G/DL
same,LEUKOCYTE COUNT,[2],13.5 x10E3/uL
same,LYMPHOCYTE,[2],92.33%
same,MEAN CORPUSCULAR HEMOGLOBIN,[2],23.8 pg
same,MEAN CORPUSCULAR HEMOGLOBIN CONCENTRATION,[2],38.2 G/DL
same,MEAN CORPUSCULAR VOLUME,[2],62.23 fL
same,MONOCYTE,[2],0%
same,NEUTROPHIL,[2],6.33%
same,NUCLEATED RED BLOOD CELLS,[2],0 /100WBC
same,PLATELET COUNT,[2],1189 x10E3/uL
same,ALANINE AMINOTRANSFERASE,[2],52.67 u/L
same,ALBUMIN,[2],4.33 G/DL
same,ALKALINE PHOSPHATASE,[2],317 u/L
same,ASPARTATE AMINOTRANSFERASE,[2],76 u/L
same,BLOOD UREA NITROGEN,[2],13.33 mg/dL
same,CARBON DIOXIDE,[2],29.33 mmol/L
same,CHLORIDE,[2],99.67 MEQ/L
same,CHOLESTEROL,[2],85.33 mg/dL
same,CREATINE PHOSPHOKINASE,[2],176.67 u/L
same,CREATININE,[2],0.17 mg/dL
same,GLUCOSE,[2],160.67 mg/dL
same,LACTATE DEHYDROGENASE,[2],71 u/L
same,LIPASE,[2],9 u/L
same,PHOSPHORUS,[2],11.83 mg/dL
same,POTASSIUM,[2],6.87 MEQ/L
same,SODIUM,[2],144.6 MEQ/L
same,TOTAL BILIRUBIN,[2],0.17 mg/dL
same,TOTAL PROTEIN,[2],5.9 G/DL
same,URIC ACID,[2],1.9 mg/dL
same,ABSOLUTE BASOPHIL,[3],0 CELLS/uL
same,ABSOLUTE EOSINOPHIL,[3],276.67 CELLS/uL
same,ABSOLUTE LYMPHOCYTE,[3],12982 CELLS/uL
same,ABSOLUTE MONOCYTE,[3],0 CELLS/uL
same,ABSOLUTE SEGMENTED NEUTROPHIL,[3],1474.67 CELLS/uL
same,BASOPHIL,[3],0%
same,EOSINOPHIL,[3],2%
same,ERYTHROCYTE COUNT,[3],5.69 x10E6/uL
same,HEMATOCRIT,[3],36.37%
same,HEMOGLOBIN,[3],13.67 G/DL
same,LEUKOCYTE COUNT,[3],14.73 x10E3/uL
same,LYMPHOCYTE,[3],88%
same,MEAN CORPUSCULAR HEMOGLOBIN,[3],24.07 pg
same,MEAN CORPUSCULAR HEMOGLOBIN CONCENTRATION,[3],37.6 G/DL
same,MEAN CORPUSCULAR VOLUME,[3],63.97 fL
same,MONOCYTE,[3],0%
same,NEUTROPHIL,[3],10%
same,NUCLEATED RED BLOOD CELLS,[3],0 /100WBC
same,PLATELET COUNT,[3],1178 x10E3/uL
same,ALANINE AMINOTRANSFERASE,[3],52.33 u/L
same,ALBUMIN,[3],4.47 G/DL
same,ALKALINE PHOSPHATASE,[3],443.33 u/L
same,ASPARTATE AMINOTRANSFERASE,[3],75.67 u/L
same,BLOOD UREA NITROGEN,[3],16.67 mg/dL
same,CARBON DIOXIDE,[3],28.33 mmol/L
same,CHLORIDE,[3],101.33 MEQ/L
same,CHOLESTEROL,[3],60.67 mg/dL
same,CREATINE PHOSPHOKINASE,[3],199 u/L
same,CREATININE,[3],0.23 mg/dL
same,GLUCOSE,[3],155 mg/dL
same,LACTATE DEHYDROGENASE,[3],127.33 u/L
same,LIPASE,[3],9 u/L
same,PHOSPHORUS,[3],12.27 mg/dL
same,POTASSIUM,[3],6.59 MEQ/L
same,SODIUM,[3],147.07 MEQ/L
same,TOTAL BILIRUBIN,[3],0.13 mg/dL
same,TOTAL PROTEIN,[3],6.3 G/DL
same,URIC ACID,[3],1.6 mg/dL
